Laboratory results published in patent US20240293391A1, “ISOQUINOLINE AND PYRIDINE BASED CXCR4 ANTAGONISTS” (Katholieke Universiteit Leuven, priority 2021, published 2024).

Tests used:
CXCR4 [1] = biological target: T1, CXCR4 (Homo sapiens, UniProt P61073); test: CXCR4 calcium mobilization assay (CXCL12-induced, U87.CD4.CXCR4 cells, FLIPR); type: cell-based; conditions: Concentration needed to inhibit CXCL12-induced calcium signaling by 50%
Protocol: (§1) First, the ability of the compounds to compete with fluorescently labeled CXCL12 (CXCL12^AF647) for binding at CXCR4 was determined. […] Finally, given the role of CXCR4 as a major coreceptor for HIV entry, the antiviral activity of the compounds against the X4-tropic wild type HIV-1 NL4-3 strain and the HIV-2 ROD strain was determined in MT-4 cells. In parallel, the cytotoxicity of the compounds for uninfected MT-4 cells was assessed.
The calcium mobilization assay has been described in detail previously [Claes et al. JoVE 2018, 132, 1-9]. U87.CD4.CXCR4 cells (2×10^4 cells per well in DMEM/10% FBS/0.01M HEPES) were seeded in gelatin-coated (Sigma-Aldrich; 0.1% gelatin in DPBS) black-walled 96-well plates and incubated overnight at 37° ° C. and 5% CO2. The next day, cells were loaded with the fluorescent calcium indicator Fluo-2 acetoxymethyl (AM) ester (4 μM; Abcam) and incubated at room temperature in the dark for 45 minutes. Then, cells were incubated with various concentrations of the compounds for 10 minutes prior to addition of 6.25 nM CXCL12 (in assay buffer). Fluctuations in intracellular calcium levels were measured in real time by the FLIPR Tetra® (Molecular Devices, Sunnyvale, CA, USA) in all 96 wells simultaneously. The response over baseline (after CXCL12 addition) was calculated with the ScreenWorks 4.0® software (Molecular Devices) by dividing the obtained relative light units (RLUs) through the base line measured just before CXCL12 addition. From this the IC50 value for each compound was determined taking into account the negative (i.e. untreated cells without CXCL12 stimulation) and positive (i.e. untreated cells with CXCL12 addition) control samples.

[2] = Cytotoxicity for mock-infected (uninfected) MT-4 cells; type: cell-based; conditions: human, mock-infected (uninfected) MT-4 cells, Concentration required to reduce the viability of mock-infected MT4 cells by 50%
Protocol: (§2) First, the ability of the compounds to compete with fluorescently labeled CXCL12 (CXCL12^AF647) for binding at CXCR4 was determined. Secondly, since binding of CXCL12 to CXCR4 results into a transient increase of cytosolic calcium levels, the inhibition of this CXCL12-induced calcium mobilization by the various compounds was also investigated. […] In parallel, the cytotoxicity of the compounds for uninfected MT-4 cells was assessed. […] The anti-HIV assays in MT-4 cells been described in detail before [Hout et al. cited above; […] et al. AIDS 2004, 18, 2115-2125]. […] After five days, the cytopathic effect was checked microscopically and cell viability (i.e. viral replication) was evaluated using the MTS/PES-based CellTiter 96 Aqueous One Solution Cell Proliferation assay (Promega, Fitchburg, WI, USA). Absorbance was recorded using the VersaMax ELISATM microplate reader (Molecular Devices) and analyzed with the Softmax Pro® software (Molecular Devices).

CXCR4 [3] = biological target: T1, CXCR4; test: CXCR4 binding assay (competition with CXCL12^AF647 on Jurkat cells, flow cytometry); design: endogenous in cells; host or cells: Jurkat cells
Protocol: as §1
The CXCL12^AF647 binding assay with Jurkat cells has been described previously [Schoofs et al. JoVE 2018, 133, 1-8]. Briefly, Jurkat cells were resuspended in assay buffer [Hank's Balanced Salt Solution (HBSS, Thermo Fisher Scientific), 20 mM HEPES buffer, 0.2% bovine serum albumin (Sigma-Aldrich), pH 7.4] at 3×10^5 cells per sample and then treated with various concentrations of the compound at room temperature for 15 minutes. Afterwards, the cells were incubated with 2.9 nM CXCL12^AF647 (in assay buffer) at room temperature for 30 minutes in the dark. Cells were fixed in 1% paraformaldehyde in DPBS and specific CXCL12^AF647 binding [i.e. mean fluorescence intensity (MFI)] was quantified by flow cytometry (FACSArray™; Becton Dickinson). Data were analyzed with FlowJo® Software. The 50% inhibitory concentration (IC50) was calculated for each compound relative to the negative (i.e. autofluorescence of untreated and unlabeled cells) and positive (i.e. untreated cells exposed to CXCL12^AF647 only) control.

MT-4 cells = test: Cytotoxicity for mock-infected (uninfected) MT-4 cells; type: cell-based
Protocol: as §2

HIV-1 NL4-3 = test: Anti-HIV assay in MT-4 cells, HIV-1 NL4-3; type: cell-based; conditions: Human immunodeficiency virus 1, NL43, MT4; Concentration required to achieve 50% protection of MT-4 cells against HIV-induced cytopathicity
Protocol: as §2

HIV-2 ROD = test: Anti-HIV assay in MT-4 cells, HIV-2 ROD; type: cell-based; conditions: Human immunodeficiency virus 2, MT4; Concentration required to achieve 50% protection of MT-4 cells against HIV-induced cytopathicity
Protocol: as §2

[4] = Concentration needed to inhibit CXCL12 receptor binding by 50%, Jurkat cells, mean of at least two independent experiments, read-out: CXCR4 Binding IC50

T1 sequence (P61073 whole entry): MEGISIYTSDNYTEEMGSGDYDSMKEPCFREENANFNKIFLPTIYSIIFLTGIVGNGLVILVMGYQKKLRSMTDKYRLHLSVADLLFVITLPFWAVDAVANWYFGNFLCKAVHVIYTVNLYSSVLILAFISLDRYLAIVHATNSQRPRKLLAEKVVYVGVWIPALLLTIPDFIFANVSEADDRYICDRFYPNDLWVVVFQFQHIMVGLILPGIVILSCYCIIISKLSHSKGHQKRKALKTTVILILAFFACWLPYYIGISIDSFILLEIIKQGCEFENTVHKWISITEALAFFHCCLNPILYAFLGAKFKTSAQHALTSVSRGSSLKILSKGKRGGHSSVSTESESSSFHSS

Compound | IC50 (CXCR4 [1]) | IC50 (CXCR4 [3]; [4]) | IC50 (CXCR4 [3]; span over all assays (binding, calcium, HIV-1, HIV-2), read-out: IC50 values in all assays) | EC50 (HIV-1 NL4-3) | EC50 (HIV-2 ROD) | CC50 at 5 days [2] | cytotoxicity for the MT4 cell line (MT-4 cells) | CC50 (MT-4 cells; Concentration required to reduce the viability of mock-infected MT4 cells by 50%)
COc1cc2ccnc(CN(CCCCN)C3CCCc4cccnc43)c2cc1OC (stereo not shown) [Compound 19a, N1-((6,7-Dimethoxyisoquinolin-1-yl)methyl)-N1-(5,6,7,8-tetrahydroquinolin-8-yl) butane-1,4-diamine] | 25 nM | 7.2 nM | – | – | – | > 100000 nM | – | –
COc1ccc2c(CN(CCCCN)C3CCCc4cccnc43)nccc2c1 (stereo not shown) [Compound 19b, N1-((6-Methoxyisoquinolin-1-yl)methyl)-N1-(5,6,7,8-tetrahydroquinolin-8-yl)butane-1,4-diamine] | 28 nM | 0.25 nM | – | – | – | 11100 nM | – | –
NCCCCN(Cc1nccc2cc(F)ccc12)C1CCCc2cccnc21 (stereo not shown) [Compound 19c, N1-((6-Fluoroisoquinolin-1-yl)methyl)-N1-(5,6,7,8-tetrahydroquinolin-8-yl)butane-1,4-diamine] | 33 nM | 8.9 nM | – | – | – | 18100 nM | – | –
NCCCCN(Cc1nccc2cc(Br)ccc12)C1CCCc2cccnc21 (stereo not shown) [Compound 19d, N1-((6-Bromoisoquinolin-1-yl)methyl)-N1-(5,6,7,8-tetrahydroquinolin-8-yl)butane-1,4-diamine] | 440 nM | 26 nM | – | – | – | 43600 nM | – | –
NCCCCN(Cc1nccc2ccccc12)C1CCCc2cccnc21 (stereo not shown) [Compound 19e, N1-(Isoquinolin-1-ylmethyl)-N1-(5,6,7,8-tetrahydroquinolin-8-yl)butane-1,4-diamine] | 130 nM | 9.2 nM | – | – | – | 26700 nM | lack cytotoxicity | –
NCCCCN(Cc1ccccn1)C1CCCc2cccnc21 (stereo not shown) [Compound 20, N1-(Pyridin-2-ylmethyl)-N1-(5,6,7,8-tetrahydroquinolin-8-yl)butane-1,4-diamine] | – | – | – | – | – | 55400 nM | lack cytotoxicity | –
COc1cc2ccnc(CN(CCCCN)Cc3ncccc3C)c2cc1OC [Compound 24a, N1-((6,7-dimethoxyisoquinolin-1-yl)methyl)-N1-((3-methylpyridin-2-yl)methyl) butane-1,4-diamine] | 13 nM | 3.2 nM | – | – | – | > 100000 nM | lack cytotoxicity | –
c1cc(CN2CCCNCCNCCCNCC2)ccc1CN1CCCNCCNCCCNCC1 [Plerixafor, reference compound] | – | – | – | – | – | 6290 nM | – | –

More lines, main results first:

IC50 (CXCR4 [1]) | IC50 (CXCR4 [3]; [4]) | IC50 (CXCR4 [3]; span over all assays (binding, calcium, HIV-1, HIV-2), read-out: IC50 values in all assays) | EC50 (HIV-1 NL4-3) | EC50 (HIV-2 ROD) | Compound | CC50 at 5 days [2] | cytotoxicity for the MT4 cell line (MT-4 cells) | CC50 (MT-4 cells; Concentration required to reduce the viability of mock-infected MT4 cells by 50%)
3850 nM | 890 nM | – | – | – | COc1ccc2c(CN(CCCCN)Cc3ncccc3C)nccc2c1 [Compound 24b, N1-((6-Methoxyisoquinolin-1-yl)methyl)-N1-((3-methylpyridin-2-yl)methyl) butane-1,4-diamine] | 9270 nM | – | –
6.1 nM | 0.64 nM | 0.6 to 6 nM | – | – | Cc1cccnc1CN(CCCCN)Cc1nccc2cc(F)ccc12 [Compound 24c, N1-((6-Fluoroisoquinolin-1-yl)methyl)-N1-((3-methylpyridin-2-yl)methyl) butane-1,4-diamine] | 31000 nM | lack cytotoxicity | 30800 nM
690 nM | 39 nM | – | – | – | Cc1cccnc1CN(CCCCN)Cc1nccc2cc(Br)ccc12 [Compound 24d, N1-((6-Bromoisoquinolin-1-yl)methyl)-N1-((3-methylpyridin-2-yl)methyl) butane-1,4-diamine] | 29500 nM | – | –
180 nM | – | – | – | – | Cc1cccnc1CN(CCCCN)Cc1ccccn1 [Compound 25, N1-((3-Methylpyridin-2-yl)methyl)-N1-(pyridin-2-ylmethyl)butane-1,4-diamine] | 79800 nM | – | –
> 50000 nM | > 100000 nM | – | > 41600 nM | > 41600 nM | NCCCCN(Cc1ccccc1)c1cccc2cccnc12 [Compound 31a, N^1-benzyl-N^1-(quinolin-8-yl)butane-1,4-diamine] | 41600 nM | – | –
5500 nM | 36 nM | – | 380 nM | > 9460 nM | NCCCCN(Cc1ccccn1)c1cccc2cccnc12 [Compound 31b, N^1-(pyridin-2-ylmethyl)-N^1-(quinolin-8-yl)butane-1,4-diamine] | 9460 nM | – | –
5 nM | 2.3 nM | – | 18 nM | 1.3 nM | NCCCCN(Cc1nccc2ccccc12)c1cccc2cccnc12 [Compound 31c, N^1-(isoquinolin-1-ylmethyl)-N^1-(quinolin-8-yl)butane-1,4-diamine] | 2980 nM | – | –
